Measured values reported in patent US4119717A, “16-S-acyl derivatives of fusidic acid” (Leo Pharmaceutical Products Ltd. A/S Lovens Kemiske Fabrik, priority 1976, dated 1978).
Values after ≈ are worked out from the molar mass of the structure shown.

How the values were obtained:
Experiment in all cases: Antibacterial activity, concentration required for 50% inhibition
Format in all cases: cell-based
Strep.pyogenes Leo EC = conditions: Streptococcus pyogenes
Excerpt: (§1) Now, however, it has been found, that the compounds of the present invention both in vitro and in vivo show interesting antimicrobial and pharmacokinetic properties. Thereby the compounds of the invention can be used in the treatment of bacterial infections in humans and animals.

Strep.sp. Leo EG 2 = system: Strep.sp. Leo EG 2
Excerpt: as §1

[1] = system: Staph.aureus Leo CC 178 B; conditions: Staphylococcus aureus, LEOCC178B
Excerpt: as §1

[2] = system: Bacteroides fragilis Leo JA 2; conditions: LEOJA2
Excerpt: as §1

[3] = system: Staph.aureus Leo CC 178 A; conditions: Staphylococcus aureus, LEOCC178A
Excerpt: as §1

| SMILES | IC50 (Strep.pyogenes Leo EC) [µg/mL] | IC50 (Strep.sp. Leo EG 2) [µg/mL] | IC50 [1] [µg/mL] | IC50 [2] [µg/mL] | IC50 [3] [µg/mL] |
| --- | --- | --- | --- | --- | --- |
| CC(=O)S[C@H]1C[C@@]2(C)[C@@H](C[C@@H](O)[C@H]3[C@@]4(C)CC[C@H](Cl)[C@@H](C)[C@@H]4CC[C@@]32C)/C1=C(\CCC=C(C)C)C(=O)O [Example 29] | 0.63 (≈ 1.14 µM) | 1.6 (≈ 2.9 µM) | 0.5 (≈ 0.907 µM) | 1.3 (≈ 2.36 µM) | 2 (≈ 3.63 µM) |
| CC(=O)S[C@H]1C[C@@]2(C)[C@@H](CC(=O)[C@H]3[C@@]4(C)CC[C@@H](O)[C@@H](C)[C@@H]4CC[C@@]32C)/C1=C(\CCC=C(C)C)C(=O)O [Example 7, 11-keto-16-deacetoxy-16β-(acetylthio)fusidic acid] | 1 (≈ 1.88 µM) | 2 (≈ 3.77 µM) | 0.02 (≈ 0.0377 µM) | 2 (≈ 3.77 µM) | 20 (≈ 37.7 µM) |
| CC(C)CCC/C(C(=O)O)=C1/[C@@H](SC(=O)c2ccccc2)C[C@@]2(C)[C@H]1C[C@@H](O)[C@H]1[C@@]3(C)CC[C@@H](O)[C@@H](C)[C@@H]3CC[C@@]12C [Example 4, 16-Deacetoxy-16β-benzoylthio-24,25-dihydrofusidic acid] | 0.2 (≈ 0.335 µM) | 0.63 (≈ 1.06 µM) | 0.5 (≈ 0.838 µM) | 1.6 (≈ 2.68 µM) | 1.6 (≈ 2.68 µM) |
| CC(=O)S[C@H]1C[C@@]2(C)[C@@H](C[C@@H](O)[C@H]3[C@@]4(C)CC[C@H](N=[N+]=[N-])[C@@H](C)[C@@H]4CC[C@@]32C)/C1=C(\CCCC(C)C)C(=O)O [Example 28] | 0.63 (≈ 1.13 µM) | 0.63 (≈ 1.13 µM) | 1.6 (≈ 2.86 µM) | 1.6 (≈ 2.86 µM) | 2 (≈ 3.57 µM) |
| CC(=O)O[C@H]1C[C@@]2(C)[C@@H](C[C@@H](O)[C@H]3[C@@]4(C)CC[C@@H](O)[C@@H](C)[C@@H]4CC[C@@]32C)/C1=C(\CCC=C(C)C)C(=O)O [Fusidic acid] | 0.63 (≈ 1.22 µM) | 1.6 (≈ 3.1 µM) | 0.025 (≈ 0.0484 µM) | 1.6 (≈ 3.1 µM) | 16 (≈ 31 µM) |
| CC(=O)S[C@H]1C[C@@]2(C)[C@@H](C[C@@H](O)[C@H]3[C@@]4(C)CC[C@H](Br)[C@@H](C)[C@@H]4CC[C@@]32C)/C1=C(\CCCC(C)C)C(=O)O [Example 22, 3-deoxy-3β-bromo-16-deacetoxy-16β-acetylthio-24,25-dihydrofusidic acid] | 0.79 (≈ 1.32 µM) | 1.6 (≈ 2.68 µM) | 0.079 (≈ 0.132 µM) | 2 (≈ 3.35 µM) | 1.6 (≈ 2.68 µM) |
| CC(=O)S[C@H]1C[C@@]2(C)[C@@H](C[C@@H](O)[C@H]3[C@@]4(C)CC[C@@H](N=[N+]=[N-])[C@@H](C)[C@@H]4CC[C@@]32C)/C1=C(\CCCC(C)C)C(=O)O [Example 36, 3-Deoxy-3α-azido-16-deacetoxy-16β-acetylthio-24,25-dihydrofusidic acid] | 0.4 (≈ 0.715 µM) | 2 (≈ 3.57 µM) | 0.063 (≈ 0.113 µM) | 5 (≈ 8.93 µM) | 5 (≈ 8.93 µM) |
| CC(=O)S[C@H]1C[C@@]2(C)[C@@H](C[C@@H](O)[C@H]3[C@@]4(C)CC[C@H](Br)[C@@H](C)[C@@H]4CC[C@@]32C)/C1=C(\CCC=C(C)C)C(=O)O [Example 21, 3-Deoxy-3β-bromo-16-deacetoxy-16β-(acetylthio)fusidic acid] | 0.32 (≈ 0.537 µM) | 1 (≈ 1.68 µM) | 0.13 (≈ 0.218 µM) | 3.2 (≈ 5.37 µM) | 4 (≈ 6.71 µM) |
| CC(=O)S[C@H]1C[C@@]2(C)[C@@H](C[C@@H](O)[C@H]3[C@@]4(C)CC[C@@H](O)[C@@H](C)[C@@H]4CC[C@@]32C)/C1=C(\CCC=C(C)C)C(=O)O [Example 1, 16-Deacetoxy-16β-(acetylthio)fusidic acid] | 0.2 (≈ 0.375 µM) | 0.2 (≈ 0.375 µM) | 0.01 (≈ 0.0188 µM) | 0.79 (≈ 1.48 µM) | 6.3 (≈ 11.8 µM) |
| CC(=O)S[C@H]1C[C@@]2(C)[C@@H](CC(=O)[C@H]3[C@@]4(C)CC[C@@H](O)[C@@H](C)[C@@H]4CC[C@@]32C)/C1=C(\CCCC(C)C)C(=O)O [Example 8] | 1 (≈ 1.88 µM) | 2 (≈ 3.75 µM) | 0.02 (≈ 0.0375 µM) | 2 (≈ 3.75 µM) | 16 (≈ 30 µM) |
| CC(=O)S[C@H]1C[C@@]2(C)[C@@H](C[C@@H](O)[C@H]3[C@@]4(C)CC[C@@H](O)[C@@H](C)[C@@H]4CC[C@@]32C)/C1=C(\CCCC(C)C)C(=O)O [Example 3, 16-Deacetoxy-16β-acetylthio-24,25-dihydrofusidic acid] | 0.16 (≈ 0.299 µM) | 0.25 (≈ 0.467 µM) | 0.008 (≈ 0.015 µM) | 0.5 (≈ 0.935 µM) | 3.2 (≈ 5.98 µM) |
